Our source for the Ki values is patent EP2970215B1, “PYRROLIDINE DERIVATIVES, PHARMACEUTICAL COMPOSITIONS CONTAINING THEM, AND THEIR USE IN THERAPY” (AbbVie Deutschland GmbH & Co. KG, priority 2013, dated 2014).

A value given as a limit tells only on which side of the number the result lay.

This assay has as its target T1, human GlyT1c transporter (Homo sapiens, UniProt P48067).
T1 construct: expressed in transfected cells; host or cells: CHO cells (recombinant; line hGlyT1c_5_CHO is named for the uptake assay)
T1 sequence (P48067 1-706): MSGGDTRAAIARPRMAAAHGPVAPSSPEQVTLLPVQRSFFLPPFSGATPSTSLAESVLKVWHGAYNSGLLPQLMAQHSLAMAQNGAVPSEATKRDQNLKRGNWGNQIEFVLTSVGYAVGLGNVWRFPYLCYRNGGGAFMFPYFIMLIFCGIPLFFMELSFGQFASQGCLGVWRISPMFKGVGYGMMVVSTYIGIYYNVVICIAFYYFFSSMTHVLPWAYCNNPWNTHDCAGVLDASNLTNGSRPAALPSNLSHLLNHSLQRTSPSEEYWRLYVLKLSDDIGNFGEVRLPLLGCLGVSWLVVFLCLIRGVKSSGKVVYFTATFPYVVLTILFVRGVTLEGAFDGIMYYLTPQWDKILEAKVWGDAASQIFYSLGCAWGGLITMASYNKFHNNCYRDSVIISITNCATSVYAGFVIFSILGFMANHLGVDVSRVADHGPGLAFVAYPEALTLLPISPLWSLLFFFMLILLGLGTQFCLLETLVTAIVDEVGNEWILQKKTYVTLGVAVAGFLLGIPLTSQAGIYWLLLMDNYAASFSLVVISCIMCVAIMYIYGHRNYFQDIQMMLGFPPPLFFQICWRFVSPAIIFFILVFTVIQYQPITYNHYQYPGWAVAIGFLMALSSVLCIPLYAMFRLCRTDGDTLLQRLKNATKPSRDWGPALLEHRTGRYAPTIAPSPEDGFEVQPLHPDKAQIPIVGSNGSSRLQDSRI
Nature of the assay: Radioligand binding assay using recombinant CHO cell membranes expressing human GlyT1. The source says: 2. Radioligand binding assays using recombinant CHO cell membranes expressing human GlyT1: […]

Where [1] appears, read: radioligand binding to human GlyT1c transporter-expressing membranes.

As to `Cc1cccc(NC(=O)[C@@H]2CN(S(=O)(=O)c3cn(C)cn3)C[C@H]2c2ccc(F)cc2)c1` (relative stereo) [Example 316, trans-4-(4-fluorophenyl)-1-[(1-methyl-1H-imidazol-4-yl)sulfonyl]-N-(3-methylphenyl)pyrrolidine-3-carboxamide], the inhibitory constant (Ki) under setting [1] is ≤ 1000 nM. With `Cn1cnc(S(=O)(=O)N2C[C@H](NCCO[Si](C)(C)C(C)(C)C)[C@@H](c3ccccc3)C2)c1` [Example 551, (3R,4S)-N-(2-{[tert-butyl(dimethyl)silyl]oxy}ethyl)-1-[(1-methyl-1H-imidazol-4-yl)sulfonyl]-4-phenylpyrrolidin-3-amine], the inhibitory constant (Ki) under setting [1] is ≤ 10000 nM. `O=C(N[C@@H]1CN(S(=O)(=O)c2ccc(C(F)(F)F)cc2)C[C@H]1c1ccccc1)c1cc(Cl)cc(Cl)c1` (relative stereo) [Example 142, 3,5-dichloro-N-[trans-4-phenyl-1-{[4-(trifluoromethyl)phenyl]sulfonyl}pyrrolidin-3-yl]benzamide]: under setting [1], the inhibition constant Ki was ≤ 10000 nM. As to `Cn1cnc(S(=O)(=O)N2C[C@@H](Nc3ccc(F)c(F)c3F)[C@H](c3ccccc3)C2)c1` (relative stereo) [Example 234, trans-1-[(1-methyl-1H-imidazol-4-yl)sulfonyl]-4-phenyl-N-(2,3,4-trifluorophenyl)pyrrolidin-3-amine], the Ki under setting [1] was ≤ 1000 nM.

Regarding `Cn1cnc(S(=O)(=O)N2C[C@H](Nc3cc(OCC4CCNC4)ncn3)[C@@H](c3ccc(F)cc3)C2)c1` (stereo partly drawn) [Example 779, N-{(3R,4S)-4-(4-fluorophenyl)-1-[(1-methyl-1H-imidazol-4-yl)sulfonyl]pyrrolidin-3-yl}-6-(pyrrolidin-3-ylmethoxy)pyrimidin-4-amine], the Ki under setting [1] is ≤ 10000 nM.

Consider `Cn1cnc(S(=O)(=O)N2C[C@H](Nc3cc(Cl)c(Cl)cn3)[C@@H](c3ccc(F)cc3)C2)c1` [Example 706, 4,5-dichloro-N-{(3R,4S)-4-(4-fluorophenyl)-1-[(1-methyl-1H-imidazol-4-yl)sulfonyl]pyrrolidin-3-yl}pyridin-2-amine], for which, under setting [1], the inhibition constant (Ki) is ≤ 10000 nM. As to `Cn1cnc(S(=O)(=O)N2C[C@@H](Nc3ccc(F)cc3)[C@H](c3cccc(F)c3)C2)c1` (relative stereo) [Example 187, trans-4-(3-fluorophenyl)-N-(4-fluorophenyl)-1-[(1-methyl-1H-imidazol-4-yl)sulfonyl]pyrrolidin-3-amine], under setting [1], the Ki is ≤ 10000 nM.

As for `Cn1cnc(S(=O)(=O)N2C[C@@H](C(=O)Nc3ccc(F)cc3)[C@H](c3ccc(F)cc3)C2)c1` (relative stereo) [Example 358, Trans-N,4-bis(4-fluorophenyl)-1-[(1-methyl-1H-imidazol-4-yl)sulfonyl]pyrrolidine-3-carboxamide], the Ki under setting [1] is ≤ 100 nM. As for `Cn1cnc(S(=O)(=O)N2C[C@H](Nc3cc(-c4ccccc4)ncn3)[C@@H](c3ccc(F)cc3)C2)c1` [Example 722, N-{(3R,4S)-4-(4-fluorophenyl)-1-[(1-methyl-1H-imidazol-4-yl)sulfonyl]pyrrolidin-3-yl}-6-phenylpyrimidin-4-amine], the Ki under setting [1] was ≤ 10 nM. Consider `Cn1cnc(S(=O)(=O)N2C[C@H](Nc3cccc(-c4ccccn4)c3)[C@@H](c3ccc(F)cc3)C2)c1` [Example 801, (3R,4S)-4-(4-fluorophenyl)-1-[(1-methyl-1H-imidazol-4-yl)sulfonyl]-N-[3-(pyridin-2-yl)phenyl]pyrrolidin-3-amine], for which the inhibition constant Ki under setting [1] is ≤ 10 nM. Still for that read-out and setting: under `Cn1cnc(S(=O)(=O)N2C[C@@H](COc3cccc(C(F)(F)F)c3)[C@H](c3ccc(F)cc3)C2)c1` (relative stereo) [Example 293, 4-{[trans-3-(4-fluorophenyl)-4-{[3-(trifluoromethyl)phenoxy]methyl}pyrrolidin-1-yl]sulfonyl}-1-methyl-1H-imidazole] stands ≤ 100 nM; under `Cn1cnc(S(=O)(=O)N2C[C@@H](NCc3ccc(Cl)cc3)[C@H](c3ccc(F)cc3)C2)c1` (relative stereo) [Example 262, trans-N-(4-chlorobenzyl)-4-(4-fluorophenyl)-1-[(1-methyl-1H-imidazol-4-yl)sulfonyl]pyrrolidin-3-amine], ≤ 10 nM. On to `Cn1cnc(S(=O)(=O)N2C[C@@H](Nc3cccc(OCC(F)(F)F)c3)[C@H](C3CCOC3)C2)c1` (relative stereo) [Example 834, trans-1-[(1-methyl-1H-imidazol-4-yl)sulfonyl]-4-(tetrahydrofuran-3-yl)-N-[3-(2,2,2-trifluoroethoxy)phenyl]pyrrolidin-3-amine], for which the Ki (radioligand binding, recombinant CHO cell membranes expressing human GlyT1c) was ≤ 1000 nM. Consider `Cn1cnc(S(=O)(=O)N2C[C@@H](Nc3ccc4cccnc4c3)[C@H](c3ccccc3)C2)c1` (relative stereo) [Example 228, N-{trans-1-[(1-methyl-1H-imidazol-4-yl)sulfonyl]-4-phenylpyrrolidin-3-yl}quinolin-7-amine], for which the Ki under setting [1] was ≤ 10000 nM.

For the compound `Cc1cccc(C(=O)N[C@@H]2CN(S(=O)(=O)c3cn(C)cn3)C[C@H]2c2ccccc2)c1` (relative stereo) [Example 23, 3-methyl-N-{trans-1-[(1-methyl-1H-imidazol-4-yl)sulfonyl]-4-phenylpyrrolidin-3-yl}benzamide], the Ki under setting [1] is ≤ 10000 nM. With `Cn1cnc(S(=O)(=O)N2C[C@@H](Nc3cccc(C(F)(F)F)c3)[C@H](C3CCCOC3)C2)c1` (relative stereo) [Example 782, trans-1-[(1-methyl-1H-imidazol-4-yl)sulfonyl]-4-(tetrahydro-2H-pyran-3-yl)-N-[3-(trifluoromethyl)phenyl]pyrrolidin-3-amine], under setting [1], the inhibition constant (Ki) was ≤ 1000 nM.

`Cn1cc(S(=O)(=O)N2C[C@@H](NC(=O)c3cccc(C(F)(F)F)c3Cl)[C@H](c3ccccc3)C2)cn1` (relative stereo) [Example 43, 2-chloro-N-{trans-1-[(1-methyl-1H-pyrazol-4-yl)sulfonyl]-4-phenylpyrrolidin-3-yl}-3-(trifluoromethyl)benzamide]: the inhibitory constant (Ki) under setting [1] is ≤ 10000 nM. On to `Cn1cnc(S(=O)(=O)N2C[C@@H](NC(=O)c3cccc(C(F)(F)F)c3Cl)[C@H](c3cccc(Cl)c3)C2)c1` (relative stereo) [Example 56, 2-chloro-N-{trans-4-(3-chlorophenyl)-1-[(1-methyl-1H-imidazol-4-yl)sulfonyl]pyrrolidin-3-yl}-3-(trifluoromethyl)benzamide], for which the Ki under setting [1] was ≤ 1000 nM. The same measure, in the same setting: the same measure for `Cn1cnc(S(=O)(=O)N2C[C@@H](Nc3cc(F)c(F)c(Cl)c3)[C@H](c3ccccc3)C2)c1` (relative stereo) [Example 219, trans-N-(3-chloro-4,5-difluorophenyl)-1-[(1-methyl-1H-imidazol-4-yl)sulfonyl]-4-phenylpyrrolidin-3-amine]: ≤ 10000 nM; for `CCC(CC)CN[C@H]1CN(S(=O)(=O)c2cn(C)cn2)C[C@@H]1c1ccccc1` [Example 449, (3R,4S)-N-(2-ethylbutyl)-1-[(1-methyl-1H-imidazol-4-yl)sulfonyl]-4-phenylpyrrolidin-3-amine]: ≤ 1000 nM; for `Cn1cnc(S(=O)(=O)N2C[C@@H](C(=O)c3cccc(C(F)(F)F)c3)[C@H](c3ccc(F)cc3)C2)c1` (relative stereo) [Example 302, {trans-4-(4-fluorophenyl)-1-[(1-methyl-1H-imidazol-4-yl)sulfonyl]pyrrolidin-3-yl}[3-(trifluoromethyl)phenyl]methanone]: ≤ 100 nM. Consider `Cn1cnc(S(=O)(=O)N2C[C@@H](COc3cc(C(F)(F)F)ncn3)[C@H](c3ccc(F)cc3)C2)c1` (relative stereo) [Example 336, 4-({Trans-4-(4-fluorophenyl)-1-[(1-methyl-1H-imidazol-4-yl)sulfonyl]pyrrolidin-3-yl}methoxy)-6-(trifluoromethyl)pyrimidine], for which the Ki under setting [1] was ≤ 1000 nM. For `Cn1cnc(S(=O)(=O)N2CC(Cc3cccc(Cl)c3)C(C3CC3)C2)c1` (centres unmarked) [Example 309, 4-{[3-(3-chlorobenzyl)-4-cyclopropylpyrrolidin-1-yl]sulfonyl}-1-methyl-1H-imidazole], the inhibition constant (Ki) under setting [1] is ≤ 1000 nM.

As to `Cn1cnc(S(=O)(=O)N2C[C@H](Nc3cccc(-c4ccccn4)c3)[C@@H](c3ccccc3)C2)c1` [Example 802, (3R,4S)-1-[(1-methyl-1H-imidazol-4-yl)sulfonyl]-4-phenyl-N-[3-(pyridin-2-yl)phenyl]pyrrolidin-3-amine], the Ki under setting [1] was ≤ 100 nM. Still for that read-out and setting: the same measure for `Cn1cnc(S(=O)(=O)N2C[C@@H](Nc3cncc(C(F)(F)F)c3)[C@H](c3cccc(F)c3)C2)c1` (relative stereo) [Example 196, N-{trans-4-(3-fluorophenyl)-1-[(1-methyl-1H-imidazol-4-yl)sulfonyl]pyrrolidin-3-yl}-5-(trifluoromethyl)pyridin-3-amine]: ≤ 10000 nM.

Turning to `Cn1cnc(S(=O)(=O)N2C[C@H](NCc3ccc(C4CCCCO4)s3)[C@@H](c3ccccc3)C2)c1` (stereo partly drawn) [Example 558, (3R,4S)-1-[(1-methyl-1H-imidazol-4-yl)sulfonyl]-4-phenyl-N-{[5-(tetrahydro-2H-pyran-2-yl)thiophen-2-yl]methyl}pyrrolidin-3-amine], the inhibition constant (Ki) under setting [1] is ≤ 10000 nM.
